These results are taken from patent US20120015961A1, “ISOTHIOUREA DERIVATIVES OR ISOUREA DERIVATIVES HAVING BACE1 INHIBITORY ACTIVITY” (SHIONOGI & CO., LTD., priority 2009, published 2012).

One data set addresses T1, Recombinant human BACE1 (Homo sapiens, UniProt P56817).
T1 construct: purchased R&D Systems
Description: Assay of BACE1 inhibiting activity. The data set is classed as biochemical. To be noted: 50% inhibitory concentration against enzymatic activity, pH 5.0, 30° C., 3 hours. As to the method: 48.5 μL of substrate peptide solution (Biotin-XSEVNLDAEFRHDSGC-Eu: Xεε-amino-n-capronic acid, Eu=Europium cryptate) was added to each well of 96-hole half-area plate (a black plate: Costar Corporation), and after addition of 0.5 μl of the test compound (dissolved in […]) and 1 μl of Recombinant human BACE1 (R&D Systems), the reaction mixture was incubated at 30° C. for 3 hours. The substrate peptide was synthesized by reacting Cryptate TBPCOOH mono SMP (CIS bio international) with Biotin-XSEVNLDAEFRHDSGC (Peptide Institute, Inc.). The final concentrations of the substrate peptide and Recombinant human BACE1 were adjusted to 18 nM and 7.4 nM respectively, and the reaction was performed in sodium acetate buffer (50 mM sodium acetate, pH 5.0, 0.008% Triton X-100). After the completion of reaction, 50 μl of 8.0 μg/ml Streptavidin-XL665 (CIS bio international) dissolved in phosphate buffer (150 mM K2HPO4—KH2PO4, pH 7.0, 0.008% Triton X-100, 0.8 M KF) was added to each well and left stand at 30° C. for an hour. Then, fluorescence intensity was measured (excitation wavelength: 320 nm, measuring wavelength: 620 nm and 665 nm) using Wallac 1420 multilabel counter (Perkin Elmer life sciences). Enzymatic activity was determined from counting ratio of each wavelength (10,000×Count 665/Count 620) and 50% inhibitory concentration against the enzymatic activity was calculated.

Data set [1] deals with Neuroblastoma SH-SY5Y cells (SH/APPwt) with human wild-type β-APP excessively expressed. Description: Measurement of β-amyloid (Aβ) production inhibitory effect in cell. The data set is classed as cell-based. To be noted: Homo sapiens, SH-SY5Y, 24 h, amount needed to inhibit Aβ production by 50%, 24 hours incubation, Amyloid β1-40 HTRF. As to the method: Neuroblastoma SH-SY5Y cells (SH/APPwt) with human wild-type β-APP excessively expressed therein were prepared at 8×10^5 cells/mL, and 150 μl portions thereof were inoculated into each well of a 96-well culture plate (Falcon). The cells were cultured for 2 hours at 37° C. in a 5% gaseous carbon dioxide incubator. Then, a solution which had been preliminarily prepared by adding and suspending the test compound (DMSO (dimethyl sulfoxide) solution) so as to be 2 μl/50 μl medium was added to the cell sap. Namely, the final DMSO concentration was 1%, and the amount of the cell culture was 200 μl. After the incubation was performed for 24 hours from the addition of the test compound, 100 μl of the culture supernatant was collected from each fraction. The amount of the Aβ in each fraction was measured.
The […] was measured as follows. 10 μl of a homogeneous time resolved fluorescence (HTRF) measurement reagent (Amyloid β1-40 peptide; IBA Molecular Holding, S.A.) and 10 μl of the culture supernatant were put into a 384-well half area microplate (black microplate, Costar) and mixed with each other, and then left standing overnight at 4° C. while the light was shielded. Then, the fluorescence intensity (excitation wavelength: 337 nm, measurement wavelength: 620 nm and 665 nm) was measured with a Wallac 1420 multilabel counter (Perkin Elmer life sciences). The Aβ amount was determined from the count rate at each measurement wavelength (10000×Count 665/Count 620), and the amount needed to inhibit Aβ production by 50% (IC50) was calculated from at least six different dosages.
(TR-FRET usually uses a lanthanide donor and a delayed reading to cut background.)

In a further data set the target is CYP3A4 (Homo sapiens, UniProt P08684). Put plainly: CYP3A4 fluorescent MBI test. On the set-up: host or cells: E. coli. The settings on record: (IC50 without pre reaction) − (IC50 with pre reaction), pre-reaction 0 or 30 minutes. The data set is classed as in vitro ADME. As to the method: The CYP3A4 fluorescent MBI test is a test to examine enhancement of CYP3A4 inhibition by metabolic reaction of the compound. Here, E. coli-expressing CYP3A4 was used as an enzyme, and a reaction wherein 7-benzyloxy trifluoromethylcumarin (BFC) was debenzylated by the CYP3A4 enzyme into a fluorescent metabolite 7-hydroxytrifluoromethylcumarin (HFC) was employed as an indicator reaction. The reaction conditions were as follows.
Sequence of CYP3A4 (P08684 whole entry): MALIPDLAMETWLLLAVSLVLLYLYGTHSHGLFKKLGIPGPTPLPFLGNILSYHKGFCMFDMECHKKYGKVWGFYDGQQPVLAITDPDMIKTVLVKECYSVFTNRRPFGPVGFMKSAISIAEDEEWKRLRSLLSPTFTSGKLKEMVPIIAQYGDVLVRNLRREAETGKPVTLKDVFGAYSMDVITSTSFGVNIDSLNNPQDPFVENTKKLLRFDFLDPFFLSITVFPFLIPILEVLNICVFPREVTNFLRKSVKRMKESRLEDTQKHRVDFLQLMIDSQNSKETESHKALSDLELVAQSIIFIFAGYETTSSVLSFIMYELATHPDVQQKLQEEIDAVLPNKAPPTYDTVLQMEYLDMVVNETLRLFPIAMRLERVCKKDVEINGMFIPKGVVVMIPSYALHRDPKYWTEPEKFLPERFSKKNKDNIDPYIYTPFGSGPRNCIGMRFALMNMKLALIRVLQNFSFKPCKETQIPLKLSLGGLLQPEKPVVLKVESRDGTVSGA
Substrate: 5.6 μM/L 7-BFC
Pre-reaction time: 0 or 30 minutes
Reaction time: 15 minutes
Reaction temperature: 25° C. (room temperature)
CYP3A4 content (E. coli-expressing enzyme): 62.5 pmol/mL at pre-reaction, 6.25 pmol/mL at reaction (10-fold diluted)
Test compound concentration: 0.625, 1.25, 2.5, 5, 10, and 20 μM (six different concentrations).
The enzyme and a test compound solution were added to a K-Pi buffer (pH 7.4) in the aforementioned amounts for the pre-reaction so that a pre-reaction solution was prepared, and this solution was put into a 96-well microplate. Part of this solution was transferred to another 96-well microplate such that it was diluted with the substrate and the K-Pi buffer to get a 10-fold diluted solution. NADPH, which is a coenzyme, was added so as to trigger the indicator reaction (without pre-reaction). As the reaction proceeded for a predetermined time period, acetonitrile/0.5 M Tris (tris hydroxyaminomethane)=4/1 was added to terminate the reaction. NADPH was also added to the residual pre-reaction solution so as to trigger the pre-reaction (with pre-reaction). As the pre-reaction proceeded for a predetermined time period, part of the solution was transferred to another microplate so that the solution was diluted with the substrate and the K-Pi buffer to get a 10-fold diluted solution, and then the indicator reaction was triggered. As the reaction proceeded for a predetermined time period, acetonitrile/0.5 M Tris (tris hydroxyaminomethane)=4/1 was added so as to terminate the reaction. With respect to each of the microplates on which the indicator reaction was performed, the fluorescence value of the metabolite 7-HFC was measured with a fluorescence plate reader (Ex=420 nm, Em=535 nm).
Control (100%) was prepared by adding only DMSO, which was used as a solvent to dissolve the drug, to the reaction system. The remaining activity (%) at each concentration after adding the test compound solution was calculated, and the IC50 values of without pre reaction and with pre reaction were calculated by the formula: y=A+((B−A)/(1+((C/x)^D))) using XLfit. The IC50 shift value was calculated by the formula: (the IC50 value of without pre reaction)−(the IC50 value of with pre reaction).

A further data set has as its target T2, hERG channel (Homo sapiens, UniProt Q12809).
T2 construct: expressed in transfected cells; host or cells: HEK293
Put plainly: hERG test (whole-cell patch clamp). The data set is classed as cell-based. The settings on record: HEK293 cells that express hERG, 5 μM test compound for 7 minutes, peak tail current, read-out: Inhibition Rate (%). The method, then:
As risk assessment for QT prolongation in vitro, the action on delayed rectifier potassium current was studied using a HEK293 cell with a human delayed potassium ether-a-go-go related gene (hERG) channel expressed therein.
A cell was maintained at a membrane potential of −80 mV, then +50 mV of a depolarizing stimulus (2 seconds) was applied to the cell, further −50 mV of a repolarizing stimulus (2 seconds) was applied thereto and the induced peak tail current was measured by a whole-cell patch clamp technique. 5 μM of the test compounds was applied to the cells for 7 minutes, the inhibition rate before application of the test compound was calculated, and it was compared to the rate of vehicle group (0.5% dimethylsulfoxide solution).

A short description of another data set: Solubility test. The data set is classed as physicochemical. The settings on record: JP-I medium with 2% DMSO, pH 1.2, simulated gastric fluid, kinetic from dmso stock, turbidity after 4 hours. As to the method: A 2-fold dilution series (12 points) of a 10 mM solution of a test compound in DMSO was added to a medium (JP-I, JP-II) (2%), and solubility was assessed by 3 stages (High; >40 μM, Medium; 3-40 μM, Low; <3 μM) from a turbidity after 4 hours (crystallization information).

One may read the IC50 as the concentration that gives 50% inhibition. Usually inhibition stands for the percentage by which the read-out fell short of the control. Broadly, the solubility is how much of the substance goes into solution per volume.

T1 sequence (P56817 46-501): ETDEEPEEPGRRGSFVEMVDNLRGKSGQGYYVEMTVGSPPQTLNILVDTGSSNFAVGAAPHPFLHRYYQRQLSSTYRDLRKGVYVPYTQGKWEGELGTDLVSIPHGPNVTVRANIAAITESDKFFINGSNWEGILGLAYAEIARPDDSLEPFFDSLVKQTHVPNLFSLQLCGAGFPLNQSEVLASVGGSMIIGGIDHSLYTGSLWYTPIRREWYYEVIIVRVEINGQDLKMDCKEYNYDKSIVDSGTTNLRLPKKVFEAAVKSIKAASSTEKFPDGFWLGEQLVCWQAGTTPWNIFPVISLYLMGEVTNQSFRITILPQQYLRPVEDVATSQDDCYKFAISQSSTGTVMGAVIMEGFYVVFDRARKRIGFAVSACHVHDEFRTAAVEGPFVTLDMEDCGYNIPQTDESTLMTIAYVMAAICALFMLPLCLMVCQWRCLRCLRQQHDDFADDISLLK
T2 sequence (Q12809 whole entry): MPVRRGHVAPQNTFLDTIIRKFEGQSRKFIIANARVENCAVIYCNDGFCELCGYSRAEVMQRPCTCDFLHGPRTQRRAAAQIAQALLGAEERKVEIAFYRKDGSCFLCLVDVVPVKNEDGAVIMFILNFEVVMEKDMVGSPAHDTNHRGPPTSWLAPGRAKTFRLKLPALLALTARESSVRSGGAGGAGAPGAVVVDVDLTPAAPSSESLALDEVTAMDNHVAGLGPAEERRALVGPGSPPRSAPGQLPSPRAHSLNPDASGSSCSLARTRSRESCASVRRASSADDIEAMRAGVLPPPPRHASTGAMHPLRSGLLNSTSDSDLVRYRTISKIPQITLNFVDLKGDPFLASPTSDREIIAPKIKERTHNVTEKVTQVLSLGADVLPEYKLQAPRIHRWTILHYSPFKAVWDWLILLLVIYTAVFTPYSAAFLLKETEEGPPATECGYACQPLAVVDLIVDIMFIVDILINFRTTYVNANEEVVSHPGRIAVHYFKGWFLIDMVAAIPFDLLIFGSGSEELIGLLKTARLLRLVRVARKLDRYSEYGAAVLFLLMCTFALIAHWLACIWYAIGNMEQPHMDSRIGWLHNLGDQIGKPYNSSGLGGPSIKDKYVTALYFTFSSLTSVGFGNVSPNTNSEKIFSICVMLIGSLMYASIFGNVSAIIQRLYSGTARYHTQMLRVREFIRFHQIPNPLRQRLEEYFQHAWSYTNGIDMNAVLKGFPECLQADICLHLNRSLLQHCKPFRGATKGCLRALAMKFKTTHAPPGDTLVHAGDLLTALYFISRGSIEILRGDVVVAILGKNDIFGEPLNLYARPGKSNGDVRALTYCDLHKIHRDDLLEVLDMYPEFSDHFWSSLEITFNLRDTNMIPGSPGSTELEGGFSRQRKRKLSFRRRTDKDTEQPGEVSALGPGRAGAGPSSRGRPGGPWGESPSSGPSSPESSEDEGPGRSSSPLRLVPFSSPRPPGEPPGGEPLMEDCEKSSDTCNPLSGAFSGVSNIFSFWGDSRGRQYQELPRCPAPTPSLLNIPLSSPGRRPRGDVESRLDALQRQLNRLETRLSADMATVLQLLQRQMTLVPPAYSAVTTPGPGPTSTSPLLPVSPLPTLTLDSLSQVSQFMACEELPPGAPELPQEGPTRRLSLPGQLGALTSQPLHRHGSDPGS

Take `CS/C(N)=N\C1(c2cc(NC(=O)c3ccc(C#N)cn3)ccc2F)CC1` [Compound 1]: the results for the 50% inhibitory concentration (IC50) (on Recombinant human BACE1; in data set [1]) were 3670 nM and 55 nM, respectively. Moreover, the “IC50 shift” value at CYP3A4 turned out to be 0 µM. Also, the inhibition at 7 min, 5 µM on hERG channel was found to be 63.8%.

In data set [1], `CS/C(N)=N\Cc1cc(NC(=O)c2ccc(C#N)cn2)ccc1F` [Compound 2] had a half-inhibitory concentration (IC50) of 100 nM. At CYP3A4, the “IC50 shift” value came out at 0 µM.

For the compound `CC#CCOc1cnc(C(=O)Nc2cccc(C/N=C(/N)SC)c2)cn1` [Compound 3], the IC50 is 130 nM on Recombinant human BACE1 and 5 nM in data set [1]. For the same compound, the “IC50 shift” value on CYP3A4 came to 0 µM. On hERG channel, the inhibition at 7 min, 5 µM turned out to be 67.6%.

Regarding `CC#CCOc1cnc(C(=O)Nc2cccc(C/N=C(/N)SCc3ccccc3)c2)cn1` [Compound 4], the IC50 is at most 1000 nM at Recombinant human BACE1 and 119 nM in data set [1]. For the same compound, the “IC50 shift” value at CYP3A4 is 1 µM.

For the compound `C=CCS/C(N)=N\Cc1cccc(NC(=O)c2cnc(OCC#CC)cn2)c1` [Compound 5], the IC50 is at most 1000 nM at Recombinant human BACE1 and 160 nM in data set [1]. At CYP3A4, the “IC50 shift” value was -2 µM.

For `CC#CCOc1cnc(C(=O)Nc2cccc(C/N=C(/N)SCCc3ccccc3)c2)cn1` [Compound 6], the IC50 at Recombinant human BACE1 was at most 1000 nM; in data set [1] it was 172 nM. Moreover, on CYP3A4, the “IC50 shift” value was -2 µM.

With `CC#CCOc1cnc(C(=O)Nc2cccc(C/N=C(/N)SCC)c2)cn1` [Compound 7], the results for the IC50 (at Recombinant human BACE1; in data set [1]) were 1210 nM and 82 nM, respectively. Moreover, the “IC50 shift” value on CYP3A4 was under -2 µM.

On to `CC#CCOc1cnc(C(=O)Nc2cccc(C/N=C(/N)SCCC)c2)cn1` [Compound 8], for which the values for the IC50 (on Recombinant human BACE1; in data set [1]) were at most 1000 nM and 40 nM, respectively. In addition, the “IC50 shift” value at CYP3A4 was -4 µM.

Turning to `CC#CCOc1cnc(C(=O)Nc2cccc(C/N=C(/N)SCCCC)c2)cn1` [Compound 9], the figures for the IC50 (at Recombinant human BACE1; in data set [1]) were at most 1000 nM and 61 nM, respectively. Also, the “IC50 shift” value on CYP3A4 is -5 µM.

With `CC#CCOc1cnc(C(=O)Nc2cccc(C/N=C(/N)SCc3ccccn3)c2)cn1.O=CO` [Compound 11], the IC50 came to 290 nM on Recombinant human BACE1 and 524 nM in data set [1]. In addition, the “IC50 shift” value on CYP3A4 was -2 µM.

Regarding `CC#CCOc1cnc(C(=O)Nc2cccc(C/N=C(/N)SCc3ccncc3)c2)cn1.O=CO` [Compound 12], the IC50 on Recombinant human BACE1 came to 270 nM; in data set [1] it was 36 nM. For the same compound, the “IC50 shift” value on CYP3A4 was under -2 µM.

As to `CC#CCOc1cnc(C(=O)Nc2ccc(F)c(C3(/N=C(/N)SC)CC3)c2)cn1` [Compound 15], the values for the IC50 (at Recombinant human BACE1; in data set [1]) were 140 nM and 4 nM, respectively. Besides, on CYP3A4, the “IC50 shift” value is under -3 µM. Further, the inhibition at 7 min, 5 µM on hERG channel was 31.5%.

As to `CS/C(N)=N\Cc1cccc(NC(=O)c2cnc(C)cn2)c1` [Compound 18], the “IC50 shift” value on CYP3A4 was 0 µM. Besides, at hERG channel, the inhibition at 7 min, 5 µM is 10.8%.

In the data set “Solubility test”, `CS/C(N)=N\c1cccc2ccc(NC(=O)c3ccc(C#N)cn3)cc12` [Compound 28] came in with a solubility at 4 h of over 40 µM. Besides, the IC50 at Recombinant human BACE1 was 790 nM; in data set [1], 193 nM. Also, the “IC50 shift” value at CYP3A4 came out at 1 µM. The inhibition at 7 min, 5 µM on hERG channel worked out at 60.4%.

Turning to `CS/C(N)=N\C1(c2cccc(NC(=O)c3cnc(C)cn3)c2)CCCC1` [Compound 30], the “IC50 shift” value on CYP3A4 amounted to 0 µM. Besides, the inhibition at 7 min, 5 µM on hERG channel was found to be 14.1%.

Compound `CS/C(N)=N\C1(c2cccc(NC(=O)c3ccc(C#N)cn3)c2)CCCC1` [Compound 31] returned a solubility at 4 h in “Solubility test” of over 40 µM. In data set [1], the IC50 was at most 1000 nM.

With `CS/C(N)=N/C1CCc2ccc(NC(=O)c3ccc(C#N)cn3)cc21` (stereo not shown) [Compound 32], the midpoint of inhibition in data set [1], the IC50, lay at 260 nM. Further, the “IC50 shift” value at CYP3A4 was found to be 0 µM.

In turn, `CN(C)CCCO/C(N)=N/Cc1cccc(NC(=O)c2ccc(C#N)cn2)c1` [Compound 38] yielded a half-inhibitory concentration (IC50) in data set [1] of at most 1000 nM. Also, the inhibition at 7 min, 5 µM on hERG channel worked out at 8.4%.

On to `CO/C(N)=N\Cc1cc(NC(=O)c2cnc(C)cn2)ccc1F` [Compound 40], for which, in the data set “Solubility test”, the solubility at 4 h was over 40 µM. Also, the half-inhibitory concentration (IC50) in data set [1] is at most 1000 nM.

`CO/C(N)=N\C1(c2cccc(NC(=O)c3cnc(OC)cn3)c2)CC1` [Compound 45] came in with a solubility at 4 h in the data set “Solubility test” of over 40 µM. This compound also came in with an IC50 in data set [1] of 28 nM. Moreover, on hERG channel, the inhibition at 7 min, 5 µM amounted to 2.5%.
